In patent US20160279101A1, “PHARMACEUTICAL COMPOSITION FOR TREATMENT OF PNEUMONIA ASSOCIATED WITH FUSARIUM FUNGUS” (priority 2013, published 2016):
In brackets after ≈: the same amount, converted by molar mass. Where a name gives a salt, the structure may show the parent alone.

Assays:
Format in all cases: cell-based
Fusarium solani = assay: MIC by micro-liquid dilution method (Alamar Blue assay), Fusarium solani; set-up: unit not given here; details: 10 clinical strains; 35° C., 72 hours; MIC = minimum concentration with IC not less than 80%
Experimental: (§1) The MICs of each type of antifungal agent against Fusarium oxysporum and Fusarium solani were determined. That is, each fungus was cultured at 35° C. for 72 hours using, as a medium, “RPMI 1640/MOPS liquid medium supplemented with 10% Alamar Blue (registered trademark) (pH 7.0)” (see Shinobu Ishigaki et al., The Journal of the Japanese Association for Infectious Diseases, vol. 74(3) (2000) pp. 221-230) according to the micro-liquid dilution method (Alamar Blue assay), which is in accordance with the CLSI standardization and the Japanese Society for Medical Mycology method. Thereafter, O.D. was measured for investigating color change of the oxidation-reduction indicator Alamar Blue, to determine the minimum inhibitory concentration (MIC). That is, the growth inhibition rate (IC) was determined based on the O.D. value, and the minimum concentration of the agent at which an IC of not less than 80% was achieved was determined as MIC. Two strains of Fusarium oxysporum (clinically separated strains; Teikyo University Institute of Medical Mycology), and 10 strains of Fusarium solani (clinically separated strains; Institute of Dermatology (Thailand) and Teikyo University Institute of Medical Mycology) were used.

Fusarium oxysporum = assay: MIC by micro-liquid dilution method (Alamar Blue assay), Fusarium oxysporum; set-up: unit not given here; details: 2 clinical strains; 35° C., 72 hours; MIC = minimum concentration with IC not less than 80%
Experimental: as §1

Trichomonas vaginalis = assay: Growth inhibition of Trichomonas vaginalis in Trichomonas Medium F (neutral red colour, microscopy); details: for MIC: clinically isolated Trichomonas vaginalis, read-out: minimum inhibitory concentration (MIC); for MIC / Color / Result of observation under the microscope: 72 hours; for Color: 37° C.; for Result of observation under the microscope: inverted microscope
Experimental: Among the compounds represented by General Formula (1), luliconazole was selected for investigation of the effect on Trichomonas vaginalis. That is, 5×10^6 cells of clinically isolated Trichomonas vaginalis were seeded in Trichomonas Medium F, manufactured by Fuji Pharma Industrial Co., Ltd., which contains neutral red as a marker (6.5 mL, contained in a tube). Preculture was performed for 72 hours (preculture). After confirming that the Trichomonas has grown to actively produce acid and to thereby cause changing of the color of neutral red to yellow, 100 μL of the obtained preculture liquid was added to Trichomonas Medium F to be used for main culture. To resulting mixture, 0.5 mL of each test liquid was further added. The number of Trichomonas cells in the preculture liquid at this time was 1.5×10^5 cells/mL. Three types of test liquids, that is, solutions of luliconazole in 10% methanol/saline solution at luliconazole concentrations of 200 μM (final concentration, 35.2 μM), 100 μM (final concentration, 17.6 μM) and 50 μM (final concentration, 8.8 μM), were provided. A control was prepared by adding 0.5 mL of a vehicle as a test liquid. As the vehicle, 10% methanol/saline solution (final concentration, 0 μM) was used. After the addition, each resulting mixture was stirred well, and culture was carried out at 37° C. for 72 hours. Thereafter, the color was judged, and the condition of Trichomonas cells was observed under an inverted microscope.
The same study as in Example 1 was carried out except that lanoconazole was used instead of luliconazole.

[1] = system: Chlamydia trachomatis (D/UW3/Cx); assay: Anti-intracellular parasite action: Chlamydia trachomatis cultured in HeLa 229 cells, fluorescent staining of inclusion bodies
Experimental: FIG. 1 is a diagram (photographs) illustrating the results of observation of chlamydial inclusion bodies after luliconazole treatment, which observation was carried out by fluorescent staining using a Chlamydia FA reagent “Seiken”.
Using Chlamydia trachomatis (D/UW3/Cx), the anti-intracellular parasite action was examined. That is, Chlamydia trachomatis was cultured using HeLa 229 cells as a host in the presence of a 2-fold dilution series of 8 to 64 μg/mL luliconazole. The culture was carried out using, as a medium, MEM supplemented with 1 μg/mL cyclohexamide and 8% heat-inactivated FBS, at 37° C. under 5% carbon dioxide for 72 hours. Thereafter, inclusion bodies were fluorescently stained in apple green using a Chlamydia FA reagent “Seiken” (manufactured by Denka Seiken Co., Ltd.), and observed under a fluorescence microscope.

[2] = final concentration 8.8 μM, neutral red marker
[3] = final concentration 17.6 μM, neutral red marker
[4] = final concentration 35.2 μM, neutral red marker (yellow = acid production by growing Trichomonas)

Row | MIC, F. solani (10), lower line of each agent (range) (Fusarium solani) | MIC, F. oxysporum (2), lower line of each agent (range) (Fusarium oxysporum) | SMILES | also measured
1 | >4 | >4 | c1ccc(-c2ccc(C(c3ccccc3)n3ccnc3)cc2)cc1 (stereo not drawn) [BFZ, Bifonazole] | –
2 | >4 | >4 | Clc1ccccc1C(c1ccccc1)(c1ccccc1)n1ccnc1 [CTZ, Clotrimazole] | –
3 | – | >4 | CC(=O)N1CCN(c2ccc(OCC3COC(Cn4ccnc4)(c4ccc(Cl)cc4Cl)O3)cc2)CC1 (stereo not drawn) [KCZ, Ketoconazole] | –
4 | – | >4 | Clc1ccc(COC(Cn2ccnc2)c2ccc(Cl)cc2Cl)c(Cl)c1 (stereo not drawn) [MCZ, Miconazole nitrate] | –
5 | – | >4 | C[C@@H](c1ncncc1F)[C@](O)(Cn1cncn1)c1ccc(F)cc1F [VCZ, Voriconazole] | –
6 | 0.063-0.25 | 0.063-0.13 | N#C/C(=C1/SCC(c2ccccc2Cl)S1)n1ccnc1 (stereo not drawn) [lanoconazole, 4-(2-chlorophenyl)-1,3-dithiolan-2-ylidene-1-imidazolylacetonitrile] | MIC (Trichomonas vaginalis): ~17.6 µM (≈ 5.63 µg/mL); Color (Trichomonas vaginalis; [2]): Yellow; Color (Trichomonas vaginalis; [3]): Red; Color (Trichomonas vaginalis; [4]): Red; Result of observation under the microscope (Trichomonas vaginalis; final concentration 35.2 μM): No Trichomonas cell was found; growth of Trichomonas (Trichomonas vaginalis; same study as Example 1, no concentration stated): inhibit the growth of Trichomonas
7 | 0.016-0.063 | 0.016-0.031 | N#C/C(=C1/SC[C@@H](c2ccc(Cl)cc2Cl)S1)n1ccnc1 [luliconazole, (R)-(−)-(E)-[4-(2,4-dichlorophenyl)-1,3-dithiolan-2-ylidene]-1-imidazolylacetonitrile] | growth of Trichomonas (Trichomonas vaginalis; 8.8 μM): inhibited the growth of Trichomonas; MIC (Trichomonas vaginalis): ~8.8 µM (≈ 3.12 µg/mL); Color (Trichomonas vaginalis; [2]): Yellow; Color (Trichomonas vaginalis; [3]): Red; Result of observation under the microscope (Trichomonas vaginalis; final concentration 17.6 μM): No Trichomonas cell was found; Color (Trichomonas vaginalis; [4]): Red; Result of observation under the microscope (Trichomonas vaginalis; final concentration 35.2 μM): No Trichomonas cell was found; observation of chlamydial inclusion bodies ([1]; 8 μg/mL, FIG. 1 panel (A)): chlamydial inclusion bodies were found; observation of chlamydial inclusion bodies ([1]; 16 μg/mL, FIG. 1 panel (B)): chlamydial inclusion bodies were found; observation of chlamydial inclusion bodies ([1]; 32 μg/mL, FIG. 1 panel (C)): no inclusion body was found; MIC ([1]; Chlamydia trachomatis, HeLa 229 host cells, 72 hours, 2-fold dilution series 8 to 64 μg/mL, read-out: MIC against Chlamydia trachomatis): 32 µg/mL (≈ 90.3 µM)

More lines, now with the values behind:

Row | SMILES | MIC, F. solani (10), lower line of each agent (range) (Fusarium solani) | MIC, F. oxysporum (2), lower line of each agent (range) (Fusarium oxysporum) | also measured
8 | C[C@@H]1[C@H](O)[C@@H](C)/C=C/C=C/C=C/C=C/C=C/C=C/C=C/[C@H](O[C@@H]2O[C@H](C)[C@@H](O)[C@H](N)[C@@H]2O)C[C@@H]2O[C@](O)(C[C@@H](O)C[C@@H](O)[C@H](O)CC[C@@H](O)C[C@@H](O)CC(=O)O[C@H]1C)C[C@H](O)[C@H]2C(=O)O [AMB, Amphotericin B] | 2-4 | – | –
9 | CCC(C)(C)c1ccc(CC(C)CN2C[C@@H](C)O[C@@H](C)C2)cc1 (stereo partly drawn) [AMO, Amorolfine hydrochloride] | >4 | >4 | –
10 | C=C1CCN([C@H](C)[C@](O)(Cn2cncn2)c2ccc(F)cc2F)CC1 [EFCZ, Efinaconazole] | – | 0.25-1 | –
11 | OC(Cn1cncn1)(Cn1cncn1)c1ccc(F)cc1F [FCZ, Fluconazole] | >4 | >4 | –
12 | CCC(C)n1ncn(-c2ccc(N3CCN(c4ccc(OCC5COC(Cn6cncn6)(c6ccc(Cl)cc6Cl)O5)cc4)CC3)cc2)c1=O (stereo not drawn) [ITZ, Itraconazole] | >4 | >4 | –
